Measurements published in patent publication US9822382B2, “Process for making ethanol by fermentation” (Evonik Degussa GmbH, priority 2014, dated 2017).

Assays:
Format in all cases: cell-based
Rod bacteria = Rod bacteria cell count and infection rate in fermented mash, sugar cane ethanol production mill trial
Description: (§1) Bacterial and yeast cell counts, yeast cell viability and yeast flocculation were determined as described in A. J. Oliveira et al., Curso de treinamento em microbiologia, Piracicaba: FERMENTEC and ESALQ, 1996 and in A. J. Oliveira et al., Métodos para o controle microbiológico na produção de açúcar e álcool, Piracicaba: FERMENTEC, FEALQ and ESALQ, 1996. Bacterial infection rates were calculated as the ratio of the rod bacteria cell count and the yeast cell count.
(§2) Examples 9 to 11 were carried out in a sugar cane ethanol production mill operating 6 fermenters in fed-batch. The fermented mash is sent to a centrifuge which separates yeast cream with an average yeast content of 63% by weight. The yeast cream is diluted with water to an average yeast content of 27% by weight and transferred to a stirred yeast cream recovery tank. Diluted yeast cream is passed continuously from this tank to a stirred yeast treatment tank at a rate of from 42 to 127 m^3/h. Sulfuric acid is added to the yeast treatment tank to maintain a pH in the range from 1.8 to 2.8. The average residence time in both the yeast cream recovery tank and the yeast treatment tank is in the range of from 1.3 to 4.0 h. Fermentation is carried out by charging the acidified yeast concentrate to a fermenter over a 1 to 2 h period, followed by feeding sugar cane mash with a sugar content of 22° Brix and a pH of 5.8 to the fermenter over a 6 h period. Fermentation is continued for a further 2 h without feed and the fermented mash is sent to a centrifuge. Bacterial contamination was monitored by microbiological analysis of samples of fermented mash taken before feeding the mash to a centrifuge. Samples were analyzed for bacterial and yeast cell counts and for yeast cell viability and yeast flocculation.
(§3) In example 9, equilibrium peroxyacetic acid PERACLEAN® 15 of Evonik was dosed to the yeast treatment tank for 28 h in an amount of 60 ppm during days 3 and 4 of the experiment. pH in the yeast treatment tank was maintained in the range of from 1.84 to 2.02.
(§4) In example 10, equilibrium peroxyacetic acid PERACLEAN® 15 of Evonik was dosed to the yeast treatment tank for 43 h during days 6 and 7 of the experiment in an amount that was lowered stepwise from 49 ppm to 20 ppm. pH in the yeast treatment tank was maintained in the range of from 1.97 to 2.60.
(§5) In example 11, equilibrium peroxyacetic acid PERACLEAN® 15 of Evonik was dosed to the yeast cream recovery tank on days 2 and 3 of the experiment for 13 h in an amount of 50 ppm, followed by dosing for 28 h in an amount of 30 ppm. During this period the pH in the yeast cream recovery tank was in the range of from 3.0 to 3.3. Then dosing of peroxyacetic acid to the yeast cream recovery tank was stopped and peroxyacetic acid was dosed to the yeast treatment tank for 18 h in an amount of 30 ppm. During this period the pH in the yeast treatment tank was about 2.0.

Yeast [1] = test: Yeast viability and yeast flocculation in fermented mash, sugar cane ethanol production mill trial
Description: as §1, §2, §3, §4, §5

Yeast [2] = test: Yeast cell count and yeast cell viability, laboratory treatment of yeast cream and fermentation; conditions: for viability at 50 µg/mL / viability at 50 ppm / viability at 60 ppm: Saccharomyces cerevisiae
Description: as §1
(§6) The examples were carried out with a yeast cream obtained by separating yeast from a fermented sugar cane mush from a sugar cane ethanol production mill operating with batch fermentation and yeast recycle. The yeast cream was diluted with water to a yeast cell content of about 24% by weight and the pH of the diluted yeast cream was adjusted to a value of 1.8 by adding sulfuric acid.
Then 322 ml of acidified diluted yeast cream were placed in a vessel and 678 ml of cane must having a pH of 6.2 were added with mixing in 5 portions with 1 h intervals between additions. Fermentation of the cane must with the acidified diluted yeast cream was carried out at 33° C. for 21 h. The final pH of the fermented mash was 4.8.
In example 2, equilibrium peroxyacetic acid PERACLEAN® 15 of Evonik was added to the acidified diluted yeast cream in an amount of 50 mg/l and the resulting treated yeast concentrate was kept at 30° C. for 1.7 hours before it was analyzed microbiologically. Thereafter, fermentation was carried out as in example 1.
Examples 1 and 2 were repeated without adding peroxyacetic acid in example 3 and with addition of equilibrium peroxyacetic acid PERACLEAN® 15 in an amount of 60 mg/l peroxyacetic acid in example 4. The treated yeast cream was kept at 30° C. for 2 hours before it was analyzed microbiologically and fermentation was started.
as §6, with “that operates” for “operating”, “fed-batch” for “batch”, “27%” for “24%”, “weight. The” for “weight and the”, “4.0.” for “adjusted to a value of 1.8 by adding sulfuric acid.”
In example 6, equilibrium peroxyacetic acid PERACLEAN® 15 of Evonik was added to the diluted yeast cream in an amount of 50 mg/l and the resulting treated yeast concentrate was kept at 30° C. for 2.3 hours before it was analyzed microbiologically.
In example 8, the pH of the diluted yeast cream was adjusted as in example 7, equilibrium peroxyacetic acid PERACLEAN® 15 of Evonik was added to the acidified diluted yeast cream in an amount of 50 mg/l and the resulting treated yeast concentrate was kept at 30° C. for 2.0 hours before it was analyzed microbiologically.

[3] = Example 11, fermenter 3, day 6, after the dosing periods
[4] = Example 11, fermenter 6, day 2, 50 ppm then 30 ppm to yeast cream recovery tank on days 2 and 3, pH 3.0 to 3.3
[5] = Example 11, fermenter 6, day 3, 50 ppm then 30 ppm to yeast cream recovery tank on days 2 and 3, pH 3.0 to 3.3
[6] = Example 11, fermenter 6, day 5, after the dosing periods
[7] = Example 9, fermenter 2, day 3, 60 ppm to yeast treatment tank during days 3 and 4, pH 1.84 to 2.02
[8] = Example 9, fermenter 2, day 5, after addition (60 ppm, days 3 and 4) was stopped
[9] = Example 9, fermenter 4, day 3, 60 ppm to yeast treatment tank during days 3 and 4, pH 1.84 to 2.02
[10] = Example 10, fermenter 2, day 7, 49 ppm lowered stepwise to 20 ppm to yeast treatment tank during days 6 and 7, pH 1.97 to 2.60
[11] = Example 10, fermenter 2, day 8, after dosing during days 6 and 7
[12] = Example 10, fermenter 2, day 9, after dosing during days 6 and 7
[13] = Example 10, fermenter 3, day 7, 49 ppm lowered stepwise to 20 ppm to yeast treatment tank during days 6 and 7, pH 1.97 to 2.60
[14] = Example 10, fermenter 3, day 8, after dosing during days 6 and 7
[15] = Example 10, fermenter 3, day 9, after dosing during days 6 and 7
[16] = Example 11, fermenter 3, day 2, 50 ppm then 30 ppm to yeast cream recovery tank on days 2 and 3, pH 3.0 to 3.3
[17] = Example 11, fermenter 3, day 4, after recovery tank dosing, 30 ppm to yeast treatment tank for 18 h, pH about 2.0
[18] = Example 2, 50 ppm, pH 1.8, fermented mash after 21 h
[19] = Example 2, 50 ppm, pH 1.8, treated yeast concentrate, 30° C. 1.7 hours
[20] = Example 4, 60 ppm, pH 1.8, fermented mash after 19 h
[21] = Example 4, 60 ppm, pH 1.8, treated yeast concentrate, 30° C. 2 hours
[22] = Example 6, 50 mg/l, no pH adjustment (pH 4.17), treated yeast concentrate, 30° C. 2.3 hours

CC(=O)OO [peroxyacetic acid]
Rod bacteria cells/ml (Rod bacteria; [3]): 24*10^6 cells/ml
Infection rate in % (Rod bacteria; [4]): 5%
Rod bacteria cells/ml (Rod bacteria; [4]): 23*10^6 cells/ml
Infection rate in % (Rod bacteria; [5]): 5%
Rod bacteria cells/ml (Rod bacteria; [5]): 14*10^6 cells/ml
Infection rate in % (Rod bacteria; [6]): 10%
Rod bacteria cells/ml (Rod bacteria; [6]): 25*10^6 cells/ml
Yeast flocculation in % (Yeast [1]; [7]): 53%
Yeast viability in % (Yeast [1]; [7]): 79%
Yeast flocculation in % (Yeast [1]; Example 9, fermenter 2, day 4, 60 ppm to yeast treatment tank during days 3 and 4, pH 1.84 to 2.02): 5%
Yeast flocculation in % (Yeast [1]; [8]): 58%
Yeast viability in % (Yeast [1]; [8]): 82%
Yeast flocculation in % (Yeast [1]; [9]): 63%
Yeast viability in % (Yeast [1]; [9]): 85%
Yeast flocculation in % (Yeast [1]; Example 9, fermenter 4, day 4, 60 ppm to yeast treatment tank during days 3 and 4, pH 1.84 to 2.02): 0%
Yeast flocculation in % (Yeast [1]; Example 9, fermenter 4, day 6, after addition (60 ppm, days 3 and 4) was stopped): 55%
Yeast flocculation in % (Yeast [1]; Example 10, fermenter 2, day 6, 49 ppm lowered stepwise to 20 ppm to yeast treatment tank during days 6 and 7, pH 1.97 to 2.60): 0%
Yeast flocculation in % (Yeast [1]; [10]): 0%
Yeast viability in % (Yeast [1]; [10]): 75%
Yeast flocculation in % (Yeast [1]; [11]): 0%
Yeast viability in % (Yeast [1]; [11]): 79%
Yeast flocculation in % (Yeast [1]; [12]): 37%
Yeast viability in % (Yeast [1]; [12]): 79%
Yeast flocculation in % (Yeast [1]; Example 10, fermenter 3, day 6, 49 ppm lowered stepwise to 20 ppm to yeast treatment tank during days 6 and 7, pH 1.97 to 2.60): 0%
Yeast flocculation in % (Yeast [1]; [13]): 0%
Yeast viability in % (Yeast [1]; [13]): 70%
Yeast flocculation in % (Yeast [1]; [14]): 0%
Yeast viability in % (Yeast [1]; [14]): 78%
Yeast flocculation in % (Yeast [1]; [15]): 45%
Yeast viability in % (Yeast [1]; [15]): 84%
Yeast flocculation in % (Yeast [1]; [16]): 38%
Yeast viability in % (Yeast [1]; [16]): 82%
Yeast flocculation in % (Yeast [1]; [17]): 0%
Yeast viability in % (Yeast [1]; [17]): 76%
Yeast flocculation in % (Yeast [1]; [3]): 66%
Yeast flocculation in % (Yeast [1]; [4]): 0%
Yeast flocculation in % (Yeast [1]; [5]): 0%
Yeast viability in % (Yeast [1]; [5]): 89%
Yeast flocculation in % (Yeast [1]; [6]): 65%
Yeast cells/ml (Yeast [2]; [18]): 230*10^6 cells/ml
Yeast cells/ml (Yeast [2]; [19]): 550*10^6 cells/ml
Yeast cells/ml (Yeast [2]; [20]): 180*10^6 cells/ml
Yeast cells/ml (Yeast [2]; [21]): 710*10^6 cells/ml
Yeast cells/ml (Yeast [2]; [22]): 820*10^6 cells/ml
Yeast cells/ml (Yeast [2]; Example 8, 50 mg/l, pH adjusted to 2.0 with sulfuric acid (pH 2.40), treated yeast concentrate, 30° C. 2.0 hours): 830*10^6 cells/ml
viability at 50 µg/mL (Yeast [2]; pH 2.4, Example 8, 50 mg/l, pH adjusted to 2.0 with sulfuric acid (pH 2.40), treated yeast concentrate, 30° C. 2.0 hours): 88%
viability at 50 ppm (Yeast [2]; [18]): 81%
viability at 50 ppm (Yeast [2]; [19]): 73%
viability at 60 ppm (Yeast [2]; [20]): 80%
viability at 60 ppm (Yeast [2]; [21]): 83%
viability at 50 µg/mL (Yeast [2]; [22]): 86%
yeast viability in the fermentation (Yeast [2]; treatment of the yeast concentrate at pH 1.8 before using it for the fermentation): does not affect yeast viability
